Measured values as given in patent publication US20240360194A1, “New Peptides as Potent and Selective GIP Receptor Agonists” (Sanofi, priority 2021, published 2024).
Numbered stars: 1 amine (or outer) side, 2 acyl side, 3 side chain; on linkers, the order of the positions; unused ones are H or OH. Square brackets hold non-standard residues; d marks the D form. Side chains are listed from the residue outwards. Peptide text beside a SMILES is read from it. * marks the point of attachment. C18 diacid = O=C(O)CCCCCCCCCCCCCCCCC(=O)*; γGlu = O=C(O)[C@H](CCC(=O)[*:2])N[*:1]; AEEA = NCCOCCOCC(=O)O; Aib = CC(C)(N)C(=O)O

Experiments:
[1] = biological target: T1, human GIP receptor (hGIPR) (Homo sapiens, UniProt P48546); test: In vitro cellular cAMP assay for GIP receptor efficacy (HEK-293 cell line over-expressing receptor); assay type: cell-based
T1 sequence (P48546 22-466): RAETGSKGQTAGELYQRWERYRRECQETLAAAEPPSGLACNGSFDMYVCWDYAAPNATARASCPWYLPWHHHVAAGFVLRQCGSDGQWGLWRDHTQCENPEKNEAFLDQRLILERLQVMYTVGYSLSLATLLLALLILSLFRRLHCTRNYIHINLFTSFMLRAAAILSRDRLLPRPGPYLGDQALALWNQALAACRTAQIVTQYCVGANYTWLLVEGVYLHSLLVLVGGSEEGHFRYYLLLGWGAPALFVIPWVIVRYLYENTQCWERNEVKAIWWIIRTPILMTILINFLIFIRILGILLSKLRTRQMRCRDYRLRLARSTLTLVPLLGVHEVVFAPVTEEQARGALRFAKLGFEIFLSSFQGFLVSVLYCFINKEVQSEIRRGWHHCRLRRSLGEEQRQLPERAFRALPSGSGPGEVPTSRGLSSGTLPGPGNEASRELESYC

[2] = Pharmacokinetic evaluation in mice; assay type: in vivo, female C57Bl/6 mice; details: in vivo
Description: Compounds were administered in a suitable buffer system, e.g. PBS buffer solution at pH7.4 or DPBS solution at concentrations of 0.05, 0.1, 0.5 or 1 mg/ml depending on dose, species and administration volume. Female C57Bl/6 mice were dosed 0.25 mg/kg, 0.5 mg/kg or 1 mg/kg intravenously (i.v.) or subcutaneously (s.c.). The mice were sacrificed, and blood samples were collected after 0.08, 0.25, 0.5, 1, 2, 4, 8, 24, 32, and 48 h post i.v. application and 0.25, 0.5, 1, 2, 4, 8, 24, 32, and 48 h post s.c. application, respectively. Plasma samples were analysed after protein precipitation via liquid chromatography mass spectrometry (LC/MS). PK parameters and half-life were calculated using Phoenix-WinNonlin 8.1 using a non-compartmental model and linear trapezoidal interpolation calculation. Pharmacokinetic profiles were determined as described in Methods.

[3] = EC50 hGIPR 0.1% BSA, HEK-293, 0.1% BSA
[4] = female, C57Bl/6, mouse, iv, 0.25 mg/kg
[5] = female, C57Bl/6, mouse, sc, 0.5 mg/kg

Compound | EC50 [1, 3] [nM] | EC50 ([1]; EC50 hGIPR 0.1% HSA, HEK-293, 0.1% HSA) [nM] | F ([2]; mouse, sc, 0.5 mg/kg) [%] | AUC(0-t) [2, 4] [ng·h/mL] | Cmax [2, 4] [ng/mL] | clearance [2, 4] [mL/min/kg] | half-life [2, 4] [h] | AUC(0-t) [2, 5] [ng·h/mL] | Cmax [2, 5] [ng/mL] | half-life [2, 5] [h] | F [2, 5] [%]
CC[C@H](C)[C@H](NC(=O)[C@H](Cc1ccccc1)NC(=O)[C@H](CCC(=O)O)NC(=O)[C@H](CCC(=O)O)NC(=O)[C@H](CCC(N)=O)NC(=O)[C@H](Cc1c[nH]cn1)NC(=O)[C@@H](NC(=O)[C@H](CCCNC(=N)N)NC(=O)[C@H](CC(=O)O)NC(=O)[C@H](CCCCNC(=O)COCCOCCNC(=O)COCCOCCNC(=O)CC[C@H](NC(=O)CCCCCCCCCCCCCCCCC(=O)O)C(=O)O)NC(=O)C(C)(C)NC(=O)[C@@H](NC(=O)[C@H](CO)NC(=O)[C@H](CC(C)C)NC(=O)[C@H](CC(=O)O)NC(=O)[C@H](CO)NC(=O)[C@@H](NC(=O)[C@@](C)(CC)NC(=O)[C@@H](NC(=O)CNC(=O)[C@H](CCC(=O)O)NC(=O)C(C)(C)NC(=O)[C@@H](N)Cc1ccc(O)cc1)[C@@H](C)O)[C@@H](C)CC)[C@@H](C)CC)[C@@H](C)CC)C(=O)N[C@@H](CCC(=O)O)C(=O)N[C@@H](Cc1c[nH]c2ccccc12)C(=O)N[C@@H](CC(C)C)C(=O)N[C@@H](CC(C)C)C(=O)N[C@@H](C)C(=O)N[C@@H](CCC(N)=O)C(=O)N[C@@H](CCCNC(=N)N)C(=O)NCC(N)=O [SEQ ID NO: 15, H2N-Y-Aib-E-G-T-Iva-I-S-D-L-S-I-Aib-K[{AEEA}2-gGlu-C18OH]-D-R-I-H-Q-E-E-F-I-E-W-L-L-A-Q-R-G-NH2] | 0.0216 |  |  |  |  |  |  |  |  |  | 
CC[C@H](C)[C@H](NC(=O)[C@H](CCCNC(=N)N)NC(=O)[C@H](CC(=O)O)NC(=O)[C@H](CCCCNC(=O)COCCOCCNC(=O)COCCOCCNC(=O)CC[C@H](NC(=O)CCCCCCCCCCCCCCCCC(=O)O)C(=O)O)NC(=O)C(C)(C)NC(=O)[C@@H](NC(=O)[C@H](CO)NC(=O)[C@H](CC(C)C)NC(=O)[C@H](CC(=O)O)NC(=O)[C@H](CO)NC(=O)[C@@H](NC(=O)[C@@](C)(CC)NC(=O)[C@@H](NC(=O)CNC(=O)[C@H](CCC(=O)O)NC(=O)C(C)(C)NC(=O)[C@@H](N)Cc1ccc(O)cc1)[C@@H](C)O)[C@@H](C)CC)[C@@H](C)CC)C(=O)N[C@@H](Cc1c[nH]cn1)C(=O)N[C@@H](CCC(N)=O)C(=O)NC(C)(C)C(=O)N[C@@H](CCC(=O)O)C(=O)N[C@@H](Cc1ccccc1)C(=O)N[C@H](C(=O)N[C@@H](CCC(=O)O)C(=O)N[C@@H](Cc1c[nH]c2ccccc12)C(=O)N[C@@H](CC(C)C)C(=O)N[C@@H](CC(C)C)C(=O)N[C@@H](C)C(=O)N[C@@H](CCC(N)=O)C(=O)N[C@@H](CCCNC(=N)N)C(=O)NCC(N)=O)[C@@H](C)CC [SEQ ID NO: 16, H2N-Y-Aib-E-G-T-Iva-I-S-D-L-S-I-Aib-K[{AEEA}2-gGlu-C18OH]-D-R-I-H-Q-Aib-E-F-I-E-W-L-L-A-Q-R-G-NH2] | 0.0243 |  | 150 | 27300 | 5040 | 0.151 | 7.33 | 82500 | 4590 | 5.69 | 
CC[C@H](C)[C@H](NC(=O)[C@H](CCC(=O)O)NC(=O)[C@H](CCC(=O)O)NC(=O)[C@H](CCCCNC(=O)COCCOCCNC(=O)COCCOCCNC(=O)CC[C@H](NC(=O)CCCCCCCCCCCCCCCCC(=O)O)C(=O)O)NC(=O)C(C)(C)NC(=O)[C@@H](NC(=O)[C@H](CO)NC(=O)[C@H](CC(C)C)NC(=O)[C@H](CC(=O)O)NC(=O)[C@H](CO)NC(=O)[C@@H](NC(=O)[C@H](Cc1ccccc1)NC(=O)[C@@H](NC(=O)CNC(=O)[C@H](CCC(=O)O)NC(=O)C(C)(C)NC(=O)[C@@H](N)Cc1ccc(O)cc1)[C@@H](C)O)[C@@H](C)CC)[C@@H](C)CC)C(=O)N[C@@H](Cc1c[nH]cn1)C(=O)N[C@@H](CCC(N)=O)C(=O)NC(C)(C)C(=O)N[C@@H](CCC(=O)O)C(=O)N[C@@H](Cc1ccccc1)C(=O)N[C@H](C(=O)N[C@@H](CCC(=O)O)C(=O)N[C@@H](Cc1c[nH]c2ccccc12)C(=O)N[C@@H](CC(C)C)C(=O)N[C@@H](CC(C)C)C(=O)N[C@@H](C)C(=O)N[C@@H](CCC(N)=O)C(=O)NCC(=O)N1CCC[C@H]1C(=O)N[C@@H](CO)C(=O)N[C@@H](CO)C(=O)NCC(=O)N[C@@H](C)C(=O)N1CCC[C@H]1C(=O)N1CCC[C@H]1C(=O)N1CCC[C@H]1C(=O)N[C@@H](CO)C(N)=O)[C@@H](C)CC [SEQ ID NO: 19, H2N-Y-Aib-E-G-T-F-I-S-D-L-S-I-Aib-K[{AEEA}2-gGlu-C18OH]-E-E-I-H-Q-Aib-E-F-I-E-W-L-L-A-Q-G-P-S-S-G-A-P-P-P-S-NH2] (H-Y[Aib]EGTFISDLSI[Aib]K([AEEA-AEEA-γGlu-C18 diacid])EEIHQ[Aib]EFIEWLLAQGPSSGAPPPS-NH2) |  |  |  | 20800 | 3750 | 0.197 | 8.68 | 41100 | 2420 | 10.3 | 101

Continued, in another order:

EC50 [1, 3] [nM] | EC50 ([1]; EC50 hGIPR 0.1% HSA, HEK-293, 0.1% HSA) [nM] | F ([2]; mouse, sc, 0.5 mg/kg) [%] | Compound | AUC(0-t) [2, 4] [ng·h/mL] | Cmax [2, 4] [ng/mL] | clearance [2, 4] [mL/min/kg] | half-life [2, 4] [h] | AUC(0-t) [2, 5] [ng·h/mL] | Cmax [2, 5] [ng/mL] | half-life [2, 5] [h] | F [2, 5] [%]
0.0208 |  |  | CC[C@H](C)[C@H](NC(=O)[C@H](Cc1ccccc1)NC(=O)[C@H](CCC(=O)O)NC(=O)[C@H](CCC(=O)O)NC(=O)[C@H](CCC(N)=O)NC(=O)[C@H](Cc1c[nH]cn1)NC(=O)[C@@H](NC(=O)[C@H](CCCNC(=N)N)NC(=O)[C@H](CC(=O)O)NC(=O)[C@H](CCCCNC(=O)COCCOCCNC(=O)COCCOCCNC(=O)CC[C@H](NC(=O)CCCCCCCCCCCCCCCCC(=O)O)C(=O)O)NC(=O)C(C)(C)NC(=O)[C@@H](NC(=O)[C@H](CO)NC(=O)[C@H](CC(C)C)NC(=O)[C@H](CC(=O)O)NC(=O)[C@H](CO)NC(=O)[C@@H](NC(=O)[C@H](Cc1ccccc1)NC(=O)[C@@H](NC(=O)CNC(=O)[C@H](CCC(=O)O)NC(=O)C(C)(C)NC(=O)[C@@H](N)Cc1ccc(O)cc1)[C@@H](C)O)[C@@H](C)CC)[C@@H](C)CC)[C@@H](C)CC)C(=O)N[C@@H](CCC(=O)O)C(=O)N[C@@H](Cc1c[nH]c2ccccc12)C(=O)N[C@@H](CC(C)C)C(=O)N[C@@H](CC(C)C)C(=O)N[C@@H](C)C(=O)N[C@@H](CCC(N)=O)C(=O)N[C@@H](CCCNC(=N)N)C(=O)NCC(N)=O [SEQ ID NO: 4, H2N-Y-Aib-E-G-T-F-I-S-D-L-S-I-Aib-K[{AEEA}2-gGlu-C18OH]-D-R-I-H-Q-E-E-F-I-E-W-L-L-A-Q-R-G-NH2] |  |  |  |  |  |  |  | 
0.0267 | 0.0011 |  | CC[C@H](C)[C@H](NC(=O)[C@H](CCCNC(=N)N)NC(=O)[C@H](CC(=O)O)NC(=O)[C@H](CCCCNC(=O)COCCOCCNC(=O)COCCOCCNC(=O)CC[C@H](NC(=O)CCCCCCCCCCCCCCCCC(=O)O)C(=O)O)NC(=O)C(C)(C)NC(=O)[C@@H](NC(=O)[C@H](CO)NC(=O)[C@H](CC(C)C)NC(=O)[C@H](CC(=O)O)NC(=O)[C@H](CO)NC(=O)[C@@H](NC(=O)[C@H](Cc1ccccc1)NC(=O)[C@@H](NC(=O)CNC(=O)[C@H](CCC(=O)O)NC(=O)C(C)(C)NC(=O)[C@@H](N)Cc1ccc(O)cc1)[C@@H](C)O)[C@@H](C)CC)[C@@H](C)CC)C(=O)N[C@@H](Cc1c[nH]cn1)C(=O)N[C@@H](CCC(N)=O)C(=O)NC(C)(C)C(=O)N[C@@H](CCC(=O)O)C(=O)N[C@@H](Cc1ccccc1)C(=O)N[C@H](C(=O)N[C@@H](CCC(=O)O)C(=O)N[C@@H](Cc1c[nH]c2ccccc12)C(=O)N[C@@H](CC(C)C)C(=O)N[C@@H](CC(C)C)C(=O)N[C@@H](C)C(=O)N[C@@H](CCC(N)=O)C(=O)N[C@@H](CCC(=O)O)C(=O)NCC(N)=O)[C@@H](C)CC [SEQ ID NO: 12, H2N-Y-Aib-E-G-T-F-I-S-D-L-S-I-Aib-K[{AEEA}2-gGlu-C18OH]-D-R-I-H-Q-Aib-E-F-I-E-W-L-L-A-Q-E-G-NH2] |  |  |  |  |  |  |  | 
